Results on 13 molecules are retold here after patent publication US20260365677A1, “NEW CONTRAST AGENTS FOR USE IN DIAGNOSTIC IMAGING” (Bayer Aktiengesellschaft, priority 2022, published 2026).

The subject of data set [1] is freshly isolated rat hepatocytes. The data set is described as follows: Uptake into freshly isolated rat hepatocytes. The data set is classed as cell-based. Conditions: 100 μmol Gd/L, 10 min, 37 °C, relative to RC1 (Gd-EOB-DTPA). How it is done:
Triplicates were performed for each test item.

The target in the next data set is T1, OATP1B1 (Homo sapiens, UniProt Q9Y6L6).
T1 construct: expressed in transfected cells
T1 sequence (Q9Y6L6 1-691): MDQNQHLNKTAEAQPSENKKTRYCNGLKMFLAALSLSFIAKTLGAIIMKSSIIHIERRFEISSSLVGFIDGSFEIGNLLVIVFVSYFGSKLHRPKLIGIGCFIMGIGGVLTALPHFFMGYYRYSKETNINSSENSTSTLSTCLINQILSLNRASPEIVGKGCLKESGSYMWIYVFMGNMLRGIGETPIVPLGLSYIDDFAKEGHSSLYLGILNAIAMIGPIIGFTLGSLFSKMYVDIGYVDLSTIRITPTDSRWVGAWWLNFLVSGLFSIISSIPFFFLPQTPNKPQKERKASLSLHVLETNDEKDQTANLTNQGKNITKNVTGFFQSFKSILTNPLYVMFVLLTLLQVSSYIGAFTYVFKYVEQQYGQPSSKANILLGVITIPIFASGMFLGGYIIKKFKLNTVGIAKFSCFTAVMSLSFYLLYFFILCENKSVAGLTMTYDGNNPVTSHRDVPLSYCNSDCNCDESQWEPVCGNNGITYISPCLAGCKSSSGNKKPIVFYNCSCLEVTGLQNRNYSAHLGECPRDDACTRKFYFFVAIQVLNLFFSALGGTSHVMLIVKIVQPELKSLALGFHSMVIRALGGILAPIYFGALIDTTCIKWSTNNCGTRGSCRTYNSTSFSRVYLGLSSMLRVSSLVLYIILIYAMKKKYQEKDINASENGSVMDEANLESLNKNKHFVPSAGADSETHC
The data set is described as follows: Uptake into stable transfected OATP1B1 HEK 293 cells. The class given is cell-based. Conditions: 100 μM, 40 min, relative to RC1 (Gd-EOB-DTPA). How it is done:
Human stable transfected OATP1 B1 human embryonic kidney 293 cells (OATP1 B1 HEK 293, SLCO1B1, Entrez Gene ID: 10599) were used (Leonhardt M et al. Drug Metab Dispos. 2010 July; 38(7):1024-8). The following culture medium was used: 500 mL DMEM (Dulbecco's Modified Eagle Medium—high Glucose, D6429), 50 mL FCS (fetal bovine serum, Fa. Sigma, F7524), 5.8 mL G418 (Geneticin, Fa. Gibco 10131-027) and 5 mL Pen-Strep. (Penicillin-Streptomycin, Fa. Gibco, Ref 15140-122). Cryopreserved cells were shortly thawed in water bath and diluted in 10 mL warm culture medium (37 °C). After medium change the cells were grown for 3d in a 25 cm^2 cell culture flask. After 3 to 5d the cells were transferred into 75 cm^2 flasks. For the splitting the cells were incubated with 1.5 mL trypsin (Trypsin-EDTA (1×) 0.05%, Ref 25300-054 100 ml, Fa. Gibco) for 3-5 min in the incubator (37 °C, 5% CO2 and 95% oxygen). After centrifugation and washing with medium the cells were counted (50 μL cell suspension and 50 μL trypan blue (Trypan Blue Solution, 93595-50 ml, Fa. Fluka). Cells were cultured (1×10^5 cells/well) in poly-D-lysine coated 24-well plates (Fa. Corning, Ref: 354414) in 1.5 mL medium per well. After 48 h in the incubator the medium was changed and 1.5 mL/well sodium butyrate containing medium were added (40 mL culture medium plus 400 μL Na-Butyrate, Fa. Sigma Aldrich B5887-5G, 250 mg in 2.27 mL MilliQ water). After 24 h in the incubator the medium was vacuumed off and 1.5 mL transport buffer was added and incubated for 10 min. The transport buffer contains the following ingredients: 500 mL HBSS (Hank's balanced salt solution, Hyclone, SH30268.01), 5 mL HEPES buffer (4-(2-hydroxyethyl)-1-piperazine-ethanesulfonic acid, Gibco 15630-056) and 3.9 mL glucose (Sigma, G8270-100, 90 g/200 mL MilliQ water). All test items were prepared in transport buffer at a final concentration of 100 μM from stock solutions (180 to 500 mM concentration). The OATP1B1 HEK 293 cells were incubated with test solutions (test item in transport buffer 500 μL) for 40 min on a thermoshaker without shaking (PHMP, Fa. Grant Bio). Triplicates were performed for each test item. After incubation the cells were washed with 2 mL of cold PBS (+) buffer (Dulbeccos PBS+, Fa. Gibco). […] As a reference standard Gd-EOB-DTPA (gadoxetate) is used in the same well plate. The OATP1B1 HEK 293 uptake of the test compound is calculated relative to gadoxetate (resulting in the unit % of RC1).

For the molecule `CCOCCOCCOCCOc1ccc(C[C@H]2CN(CC(=O)[O-])CCN(CC(=O)[O-])CCN(CC(=O)O)CCN2CC(=O)[O-])cc1.[Gd+3]` [Example 5, Gadolinium-2,2′,2″-[(2S)-10-(carboxymethyl)-2-(4-{2-[2-(2-ethoxyethoxy)ethoxy]ethoxy}benzyl)-1,4,7,10-tetraazacyclododecane-1,4,7-triyl]triacetate], the Uptake rat hepatocytes in data set [1] is on record as 57 % of RC1. Also, at OATP1B1, the “Uptake into OATP1B1-HEK 293 cells” value is 78 % of RC1.
Turning to `CCOCCOc1ccc(C[C@H]2CN(CC(=O)[O-])CCN(CC(=O)[O-])CCN(CC(=O)O)CCN2CC(=O)[O-])cc1.[Gd+3]` [Example 4, Gadolinium-2,2′,2″-{(2S)-10-(carboxymethyl)-2-[4-(2-ethoxyethoxy)benzyl]-1,4,7,10-tetraazacyclododecane-1,4,7-triyl}triacetate], the Uptake rat hepatocytes in data set [1] is 67 % of RC1. The “Uptake into OATP1B1-HEK 293 cells” value at OATP1B1 is 65 % of RC1.
For `COCCOCCOCCOc1ccc(C[C@H]2CN(CC(=O)[O-])CCN(CC(=O)[O-])CCN(CC(=O)O)CCN2CC(=O)[O-])cc1.[Gd+3]` [Example 1, Gadolinium-2,2′,2″-[(2S)-10-(carboxymethyl)-2-(4-{2-[2-(2-methoxyethoxy)-ethoxy]ethoxy}benzyl)-1,4,7,10-tetraazacyclododecane-1,4,7-triyl]triacetate] the same measures were 47 % of RC1 and 143 % of RC1.
On the same counts, the results for `CCCCOc1ccc(C[C@H]2CN(CC(=O)[O-])CCN(CC(=O)[O-])CCN(CC(=O)O)CCN2CC(=O)[O-])cc1.[Gd+3]` (single isomer, unassigned; stereoisomer 2) [Example 13] are 137 % of RC1 and 847 % of RC1.
On the same counts, the results for `CCOc1ccc(C[C@H]2CN(CC(=O)[O-])CCN(CC(=O)[O-])CCN(CC(=O)O)CCN2CC(=O)[O-])cc1.[Gd+3]` (single isomer, unassigned; stereoisomer 1) [Example 10] are 104 % of RC1 and 212 % of RC1.
For `CCOCCOCCOc1ccc(C[C@H]2CN(CC(=O)[O-])CCN(CC(=O)[O-])CCN(CC(=O)O)CCN2CC(=O)[O-])cc1.[Gd+3]` [Example 2, Gadolinium-2,2′,2″-[(2S)-10-(carboxymethyl)-2-{4-[2-(2-ethoxyethoxy)ethoxy]benzyl}-1,4,7,10-tetraazacyclododecane-1,4,7-triyl]triacetate], the Uptake rat hepatocytes in data set [1] is 65 % of RC1. Moreover, the “Uptake into OATP1B1-HEK 293 cells” value at OATP1B1 is given as 282 % of RC1.
For `CCCCOc1ccc(C[C@H]2CN(CC(=O)[O-])CCN(CC(=O)[O-])CCN(CC(=O)O)CCN2CC(=O)[O-])cc1.[Gd+3]` (single isomer, unassigned; stereoisomer 1) [Example 12] the same measures were 110 % of RC1 and 119 % of RC1.
On the same counts, the results for `CCOc1ccc(CC2CN(CC(=O)[O-])CCN(CC(=O)[O-])CCN(CC(=O)O)CCN2CC(=O)[O-])cc1.[Gd+3]` (single isomer, unassigned; diastereomer 2) [Example 9, Gadolinium-2,2′,2″-[10-(carboxymethyl)-2-(4-ethoxybenzyl)-1,4,7,10-tetraazacyclododecane-1,4,7-triyl]triacetate (racemic diastereomer 2)] are 42 % of RC1 and 60 % of RC1.
In the case of `CCOc1ccc(CC2CN(CC(=O)[O-])CCN(CC(=O)[O-])CCN(CC(=O)O)CCN2CC(=O)[O-])cc1.[Gd+3]` (centres unmarked) [Example 7, Gadolinium-2,2′,2″-[10-(carboxymethyl)-2-(4-ethoxybenzyl)-1,4,7,10-tetraazacyclododecane-1,4,7-triyl]triacetate], the Uptake rat hepatocytes in data set [1] is reported as 73 % of RC1. On OATP1B1, the “Uptake into OATP1B1-HEK 293 cells” value is reported as 103 % of RC1.
For `CCOc1ccc(CC2CN(CC(=O)[O-])CCN(CC(=O)[O-])CCN(CC(=O)O)CCN2CC(=O)[O-])cc1.[Gd+3]` (single isomer, unassigned; diastereomer 1) [Example 8, Gadolinium-2,2′,2″-[10-(carboxymethyl)-2-(4-ethoxybenzyl)-1,4,7,10-tetraazacyclododecane-1,4,7-triyl]triacetate (racemic diastereomer 1)] the same measures were 143 % of RC1 and 208 % of RC1.
On the same counts, the results for `COCCOCCOCCOc1ccc(C[C@@H]2CN(CC(=O)[O-])CCN(CC(=O)[O-])CCN(CC(=O)O)CCN2CC(=O)[O-])cc1.[Gd+3]` [Example 3, Gadolinium-2,2′,2″-[(2R)-10-(carboxymethyl)-2-(4-{2-[2-(2-methoxyethoxy)ethoxy]ethoxy}benzyl)-1,4,7,10-tetraazacyclododecane-1,4,7-triyl]triacetate] are 49 % of RC1 and 120 % of RC1.
As for `CCOCCOCCOc1ccc(C[C@H]2CN(CC(=O)[O-])CCN(CC(=O)[O-])CCN(CC(=O)O)CCN2CC(=O)[O-])nc1.[Gd+3]` [Example 6, Gadolinium 2,2′,2″-[(2S)-10-(carboxymethyl)-2-({5-[2-(2-ethoxyethoxy)ethoxy]pyridin-2-yl}methyl)-1,4,7,10-tetraazacyclododecane-1,4,7-triyl]triacetate], in data set [1], the Uptake rat hepatocytes is 47 % of RC1. The “Uptake into OATP1B1-HEK 293 cells” value at OATP1B1 is reported as 174 % of RC1.
Take `CCOc1ccc(C[C@H]2CN(CC(=O)[O-])CCN(CC(=O)[O-])CCN(CC(=O)O)CCN2CC(=O)[O-])cc1.[Gd+3]` (single isomer, unassigned; stereoisomer 2) [Example 11]: in data set [1], the Uptake rat hepatocytes is 49 % of RC1. Besides, the “Uptake into OATP1B1-HEK 293 cells” value on OATP1B1 is listed as 96 % of RC1.
